Experimental data published in patent US20040156782A1, “Methods of using indocyanine green (ICG) dye” (Akorn, Inc., priority 2003, published 2004).

Assay: HPLC stability of reconstituted aqueous ICG composition (% label claim over time)
Assay type: physicochemical
Description: The HPLC testing utilized a Supelcosil LC-18-DB, 3 μm, 4.6×150 mm HPLC column and a supelcosil LC-18-DB, 3 μm, 4.6×33 mm guard column. The mobile phase, which consists of 0.1% phosphoric acid (Solvent A) and 100% acetonitrile (Solvent B), was fed to the columns at a flow rate of 1 ml/min, with the mobile phase composition being varied as follows:
An ICG standard was then prepared by dissolving approximately 5.5 mg of ICG (IC-GREEN™) in 10.0 ml of a diluent comprising acetonitrile and water in a 1:1 ratio. The ICG samples to be measured (IC-GREEN™) were then prepared by diluting each sample in the same diluent (1:1 acetonitrile to water) such that the estimated concentration of ICG in each sample was approximately 0.5 mg/ml. The dilution factor was determined by dividing the final volume of the sample by the volume of the ICG sample aliquot initially added. Then, five 10.0 μL quantities of the ICG standard were injected into the HPLC column and the mean peak area was determined. Next, a series of 10.0 μL injections of the samples was completed, and the mean peak area for each sample was determined. The ICG concentration for each sample was then calculated using the following formula:
[ICG in mg/ml]=[STD](ASX/ASTD)(DF)
where [STD] is the ICG concentration of the standard, ASX is the mean peak area of the sample, ASTD is the mean peak area of the standard, and DF is the dilution factor. The relative concentration of ICG present in the sample (wt. % label claim) was then determined by dividing the concentration of the sample by the initial concentration upon dissolution, then multiplying the result by one hundred.

Which “stability of aqueous compositions having relatively high ICG concentrations relative to relatively low ICG concentrations” value does the source give for `CC1(C)C(/C=C/C=C/C=C/C=C2\N(CCCCS(=O)(=O)O)c3ccc4ccccc4c3C2(C)C)=[N+](CCCCS(=O)(=O)[O-])c2ccc3ccccc3c21` [ICG, Indocyanine green] here?
Its value is “more stable”.

And the “time after reconstitution at which ICG content corresponds to 95 wt. % based on the label claim” value (5 mg/ml reconstituted aqueous ICG composition)?
The value was “about 18 hours”.

What about the “relative concentration (% label claim) of ICG in aqueous ICG composition” value (for more than ten hours after the lyophilized ICG is reconstituted) of the same compound?
Its value is “above 90 wt. %”.
